Reference: patent publication US11161856B2 (H. Lundbeck A/S, priority 2017, dated 2021)

Key:
ABHD6 = target: T1, ABHD6 (Mus musculus, UniProt Q8R2Y0); experiment: In vitro competitive activity-based protein profiling, mouse brain proteome (ABHD6); assay type: biochemical; conditions: mouse brain proteome; concentration not given (μM)
T1 construct: Brain; from tissue; host or cells: mouse brain proteome
T1 sequence (Q8R2Y0 1-336): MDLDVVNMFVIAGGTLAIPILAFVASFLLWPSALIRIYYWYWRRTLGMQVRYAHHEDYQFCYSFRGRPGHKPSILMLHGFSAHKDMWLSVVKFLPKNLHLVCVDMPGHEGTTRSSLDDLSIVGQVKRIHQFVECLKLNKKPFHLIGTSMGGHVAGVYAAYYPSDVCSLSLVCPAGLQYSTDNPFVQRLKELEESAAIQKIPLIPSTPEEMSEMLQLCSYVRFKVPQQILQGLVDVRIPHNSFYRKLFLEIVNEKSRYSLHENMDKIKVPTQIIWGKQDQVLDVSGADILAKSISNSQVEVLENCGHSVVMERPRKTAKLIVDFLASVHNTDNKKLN
Procedure: [The source words this procedure for another target and reports this target under the same test.] In Vitro Competitive Activity-Based Protein Profiling.
Proteomes (human prefrontal cortex or cell membrane fractions) (50 μL, 1.0 mg/mL total protein concentration) were preincubated with varying concentrations of inhibitors at 37° C. After 30 min, FP-Rh or HT-01 (1.0 μL, 50 μM in DMSO) was added and the mixture was incubated for another 30 min at room temperature. Reactions were quenched with SDS loading buffer (15 μL-4×) and run on SDS-PAGE.

MGLL = target: T2, MGLL (Mus musculus, UniProt O35678); experiment: In vitro competitive activity-based protein profiling, mouse brain proteome (MGLL); assay type: biochemical; conditions: for % Inh MGLL Brain (Mouse, μM): concentration not given (μM)
T2 construct: Brain; from tissue; host or cells: mouse brain proteome
T2 sequence (O35678 1-303): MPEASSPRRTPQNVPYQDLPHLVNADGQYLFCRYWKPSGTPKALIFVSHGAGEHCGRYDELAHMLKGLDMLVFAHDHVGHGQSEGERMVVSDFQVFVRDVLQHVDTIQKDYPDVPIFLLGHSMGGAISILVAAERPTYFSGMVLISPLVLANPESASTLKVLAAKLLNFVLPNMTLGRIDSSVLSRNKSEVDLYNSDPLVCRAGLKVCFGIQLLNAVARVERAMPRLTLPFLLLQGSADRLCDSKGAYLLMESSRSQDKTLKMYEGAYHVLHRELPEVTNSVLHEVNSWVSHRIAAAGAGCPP

% Inh ABHD6 Brain (Mouse, μM) (ABHD6)	% Inh MGLL Brain (Mouse, μM) (MGLL)	inhibition at 10 µM (MGLL; at 10 uM, read-out: % Inh MGLL Brain (Mouse)) [%]	SMILES
### (### is ≥75%)	### (### is ≥75%)		Cc1cc(-c2ccccc2)ccc1CN1CC2(CCN(C(=O)OC(C(F)(F)F)C(F)(F)F)CC2)C1 [Example 68, 1,1,1,3,3,3-Hexafluoropropan-2-yl 2-((3-methyl-[1,1'-biphenyl]-4-yl)methyl)-2,7-diazaspiro[3,5]nonane-7-carboxylate]
### (### is ≥75%)	### (### is ≥75%)		CC(=O)N1CCCc2cccc(CN3CCC4(CC3)CN(C(=O)OC(C(F)(F)F)C(F)(F)F)C4)c21 [Example 152, 1,1,1,3,3,3-Hexafluoropropan-2-yl 7-((1-acetyl-1,2,3,4-tetrahydroquinolin-8-yl)methyl)-2,7-diazaspiro[3.5]nonane-2-carboxylate]
### (### is ≥75%)	### (### is ≥75%)		O=C(OC(C(F)(F)F)C(F)(F)F)N1CC2(CCN(Cc3ccc(N4CCCC4)cc3)CC2)C1 [Example 17, 1,1,1,3,3,3-hexafluoropropan-2-yl 7-(4-(pyrrolidin-1-yl)benzyl)-2,7-diazaspiro[3.5]nonane-2-carboxylate]
### (### is ≥75%)	### (### is ≥75%)		O=C(OC(C(F)(F)F)C(F)(F)F)N1CCC2(CC1)CN(Cc1ccc(Cl)c(Cl)c1)C2 [Example 67, 1,1,1,3,3,3-Hexafluoropropan-2-yl 2-(3,4-dichlorobenzyl)-2,7-diazaspiro[3,5]nonane-7-carboxylate]
### (### is ≥75%)		25 to 75	CS(=O)(=O)N1CCC2(CCN(c3cc(Cl)cc(CN4CCCC45CN(C(=O)OC(C(F)(F)F)C(F)(F)F)C5)c3)CC2)C1 [Example 232]
# (# is ≤25%)	# (# is ≤25%)		CCN1CC2(CCN(c3cc(Cl)cc(CN4CCCC45CN(C(=O)OC(C(F)(F)F)C(F)(F)F)C5)c3)CC2)C1 [Example 241, 1,1,1,3,3,3-Hexafluoropropan-2-yl 5-(3-chloro-5-(2-ethyl-2,7-diazaspiro[3,5]nonan-7-yl)benzyl)-2,5-diazaspiro[3,4]octane-2-carboxylate]
### (### is ≥75%)	### (### is ≥75%)		CC(=O)N1CCN(c2cccc(Cl)c2CN2CC3(CCN(C(=O)OC(C(F)(F)F)C(F)(F)F)CC3)C2)CC1 [Example 49, 1,1,1,3,3,3-Hexafluoropropan-2-yl 2-(2-(4-acetylpiperazin-1-yl)-6-chlorobenzyl)-2,7-diazaspiro[3.5]nonane-7-carboxylate]

The next lines start with the compound.

SMILES	% Inh ABHD6 Brain (Mouse, μM) (ABHD6)	% Inh MGLL Brain (Mouse, μM) (MGLL)	inhibition at 10 µM (MGLL; at 10 uM, read-out: % Inh MGLL Brain (Mouse)) [%]
O=C(OC(C(F)(F)F)C(F)(F)F)N1CCC2(CC1)CN(Cc1cccc(N3CCOCC3)c1)C2 [Example 90, 1,1,1,3,3,3-Hexafluoropropan-2-yl 2-(3-morpholinobenzyl)-2,7-diazaspiro[3,5]nonane-7-carboxylate]	### (### is ≥75%)	### (### is ≥75%)	
CC(=O)N1CCCC12CCN(c1cc(C(F)(F)F)ccc1CN1CCN(C(=O)OC(C(F)(F)F)C(F)(F)F)CC1)CC2 [Example 208, 1,1,1,3,3,3-Hexafluoropropan-2-yl 4-(2-(1-acetyl-1,8-diazaspiro[4.5]decan-8-yl)-4-(trifluoromethyl)benzyl) piperazine-1-carboxylate]	# (# is ≤25%)	### (### is ≥75%)	
O=C(OC(C(F)(F)F)C(F)(F)F)N1CCC2(CC1)CN(Cc1ccc(C(F)(F)F)cc1N1CCCC1)C2 [Example 151, 1,1,1,3,3,3-Hexafluoropropan-2-yl 2-(2-(pyrrolidin-1-yl)-4-(trifluoromethyl)benzyl)-2,7-diazaspiro[3.5]nonane-7-carboxylate]	### (### is ≥75%)	### (### is ≥75%)	
O=C(OC(C(F)(F)F)C(F)(F)F)N1CC2(CCN(Cc3ccc(N4CCOCC4)cc3)CC2)C1 [Example 65, 1,1,1,3,3,3-Hexafluoropropan-2-yl 7-(4-morpholinobenzyl)-2,7-diazaspiro[3.5]nonane-2-carboxylate]	### (### is ≥75%)	### (### is ≥75%)	
CN1CC2CN(c3cc(Cl)ccc3CN3CCN(C(=O)OC(C(F)(F)F)C(F)(F)F)CC3)CC2C1 (stereo not shown) [Example 206, 1,1,1,3,3,3-Hexafluoropropan-2-yl 4-(4-chloro-2-(5-methylhexahydropyrrolo[3,4-c]pyrrol-2(1H)-yl)benzyl)piperazine-1-carboxylate]	# (# is ≤25%)	### (### is ≥75%)	
CCN1CC2(CCN(c3cc(C(F)(F)F)ccc3CN3CCN(C(=O)OC(C(F)(F)F)C(F)(F)F)CC3)C2)C1 [Example 184, 1,1,1,3,3,3-Hexafluoropropan-2-yl 4-(2-(2-ethyl-2,6-diazaspiro[3,4]octan-6-yl)-4-(trifluoromethyl)benzyl) piperazine-1-carboxylate]	# (# is ≤25%)	### (### is ≥75%)	
CS(=O)(=O)N1CC2CN(c3cc(Cl)ccc3CN3CCN(C(=O)OC(C(F)(F)F)C(F)(F)F)CC3)CC2C1 (stereo not shown) [Example 203, 1,1,1,3,3,3-Hexafluoropropan-2-yl 4-(4-chloro-2-(5-(methylsulfonyl)hexahydropyrrolo[3,4-c]pyrrol-2(lH)-yl)benzyl)piperazine-l - carboxylate]	### (### is ≥75%)	### (### is ≥75%)	
O=C(OC(C(F)(F)F)C(F)(F)F)N1CC2(CCN(Cc3ccc(Cl)cc3)CC2)C1 [Example 75, 1,1,1,3,3,3-Hexafluoropropan-2-yl 7-(4-chlorobenzyl)-2,7-diazaspiro[3.5]nonane-2-carboxylate]	### (### is ≥75%)	### (### is ≥75%)	
O=C(OC(C(F)(F)F)C(F)(F)F)N1CCC2(CC1)CN(Cc1ccc(CN3CCOCC3)cc1)C2 [Example 73, 1,1,1,3,3,3-Hexafluoropropan-2-yl 2-(4-(morpholinomethyl)benzyl)-2,7-diazaspiro[3.5]nonane-7-carboxylate]	### (### is ≥75%)	### (### is ≥75%)	
CN1CC2(CCN(c3cc(C(F)(F)F)ccc3CN3CCN(C(=O)OC(C(F)(F)F)C(F)(F)F)CC3)C2)C1 [Example 179, 1,1,1,3,3,3-Hexafluoropropan-2-yl 4-(2-(2-methyl-2,6-diazaspiro[3,4]octan-6-yl)-4-(trifluoromethyl)benzyl) piperazine-1-carboxylate]	# (# is ≤25%)	### (### is ≥75%)	
CC(=O)N1CC2(CCN(c3cc(C(F)(F)F)ccc3CN3CCN(C(=O)OC(C(F)(F)F)C(F)(F)F)CC3)CC2)C1 [Example 216, 1,1,1,3,3,3-Hexafluoropropan-2-yl 4-(2-(2-acetyl-2,7-diazaspiro[3.5]nonan-7-yl)-4-(trifluoromethyl)benzyl) piperazine-1-carboxylate]	## (## is between 25 and 75%)	### (### is ≥75%)	
O=C(OC(C(F)(F)F)C(F)(F)F)N1CCC2(CC1)CN(Cc1ccc(Cl)cc1N1CCCCC1)C2 [Example 38, 1,1,1,3,33-Hexafluoropropan-2-yl 2-(4-chloro-2-(piperidin-1-yl)benzyl)-2,7-diazaspiro[3.5]nonane-7-carboxylate]	## (## is between 25 and 75%)	### (### is ≥75%)	
CS(=O)(=O)N1CCC2(CCN(c3ccccc3CN3CCN(C(=O)OC(C(F)(F)F)C(F)(F)F)CC3)C2)C1 (stereo not shown) [Example 165, 1,1,1,3,3,3-Hexafluoropropan-2-yl 4-(2-(7-(methylsulfonyl)-2,7-diazaspiro[4.4]nonan-2-yl)benzyl)piperazine-1-carboxylate]	# (# is ≤25%)	### (### is ≥75%)	
O=C(OC(C(F)(F)F)C(F)(F)F)N1CCC2(CCN(Cc3ccc(C(F)(F)F)cc3N3CCCCC3)CC2)C1 [Example 187, 1,1,1,3,3,3-Hexafluoropropan-2-yl 8-(2-(piperidin-1-yl)-4-(trifluoromethyl)benzyl)-2,8-diazaspiro[4.5]decane-2-carboxylate]	# (# is ≤25%)	### (### is ≥75%)	
CCN1CCC2(CCN(c3cc(Cl)cc(CN4CCCC45CN(C(=O)OC(C(F)(F)F)C(F)(F)F)C5)c3)CC2)C1 [Example 235, 1,1,1,3,3,3-Hexafluoropropan-2-yl 5-(3-chloro-5-(2-ethyl-2,8-diazaspiro[4.5]decan-8-yl)benzyl)-2,5-diazaspiro[3.4]octane-2-carboxylate]	### (### is ≥75%)		
